Laboratory results: patent publication US20210130339A1, “COMPOUNDS” (GLAXOSMITHKLINE INTELLECTUAL PROPERTY DEVELOPMENT LIMITED, priority 2017, published 2021)
“And” between values parts separate entries of the source, which are not always exact repeats. Equal values may be shown once.

Columns and labels:
[1] = target: T1, Full length G2019 human LRRK2 (Homo sapiens, UniProt Q5S007); assay: Full length G2019 human LRRK2 Inhibition Mass Spectrometry assay; type: biochemical; details: LRRKtide substrate, RapidFire mass spectrometry; read-out: pIC50 in the Full length G2019 human LRRK2 Inhibition Mass Spectrometry assay (converted)
T1 construct: purified recombinant Full length Flag-LRRK2 in assay buffer; made in house; host or cells: HEK293 6E cells transduced with BacMam virus (virus generated in Sf9 cells)
T1 sequence (Q5S007 with tags, fused parts or gaps R50H): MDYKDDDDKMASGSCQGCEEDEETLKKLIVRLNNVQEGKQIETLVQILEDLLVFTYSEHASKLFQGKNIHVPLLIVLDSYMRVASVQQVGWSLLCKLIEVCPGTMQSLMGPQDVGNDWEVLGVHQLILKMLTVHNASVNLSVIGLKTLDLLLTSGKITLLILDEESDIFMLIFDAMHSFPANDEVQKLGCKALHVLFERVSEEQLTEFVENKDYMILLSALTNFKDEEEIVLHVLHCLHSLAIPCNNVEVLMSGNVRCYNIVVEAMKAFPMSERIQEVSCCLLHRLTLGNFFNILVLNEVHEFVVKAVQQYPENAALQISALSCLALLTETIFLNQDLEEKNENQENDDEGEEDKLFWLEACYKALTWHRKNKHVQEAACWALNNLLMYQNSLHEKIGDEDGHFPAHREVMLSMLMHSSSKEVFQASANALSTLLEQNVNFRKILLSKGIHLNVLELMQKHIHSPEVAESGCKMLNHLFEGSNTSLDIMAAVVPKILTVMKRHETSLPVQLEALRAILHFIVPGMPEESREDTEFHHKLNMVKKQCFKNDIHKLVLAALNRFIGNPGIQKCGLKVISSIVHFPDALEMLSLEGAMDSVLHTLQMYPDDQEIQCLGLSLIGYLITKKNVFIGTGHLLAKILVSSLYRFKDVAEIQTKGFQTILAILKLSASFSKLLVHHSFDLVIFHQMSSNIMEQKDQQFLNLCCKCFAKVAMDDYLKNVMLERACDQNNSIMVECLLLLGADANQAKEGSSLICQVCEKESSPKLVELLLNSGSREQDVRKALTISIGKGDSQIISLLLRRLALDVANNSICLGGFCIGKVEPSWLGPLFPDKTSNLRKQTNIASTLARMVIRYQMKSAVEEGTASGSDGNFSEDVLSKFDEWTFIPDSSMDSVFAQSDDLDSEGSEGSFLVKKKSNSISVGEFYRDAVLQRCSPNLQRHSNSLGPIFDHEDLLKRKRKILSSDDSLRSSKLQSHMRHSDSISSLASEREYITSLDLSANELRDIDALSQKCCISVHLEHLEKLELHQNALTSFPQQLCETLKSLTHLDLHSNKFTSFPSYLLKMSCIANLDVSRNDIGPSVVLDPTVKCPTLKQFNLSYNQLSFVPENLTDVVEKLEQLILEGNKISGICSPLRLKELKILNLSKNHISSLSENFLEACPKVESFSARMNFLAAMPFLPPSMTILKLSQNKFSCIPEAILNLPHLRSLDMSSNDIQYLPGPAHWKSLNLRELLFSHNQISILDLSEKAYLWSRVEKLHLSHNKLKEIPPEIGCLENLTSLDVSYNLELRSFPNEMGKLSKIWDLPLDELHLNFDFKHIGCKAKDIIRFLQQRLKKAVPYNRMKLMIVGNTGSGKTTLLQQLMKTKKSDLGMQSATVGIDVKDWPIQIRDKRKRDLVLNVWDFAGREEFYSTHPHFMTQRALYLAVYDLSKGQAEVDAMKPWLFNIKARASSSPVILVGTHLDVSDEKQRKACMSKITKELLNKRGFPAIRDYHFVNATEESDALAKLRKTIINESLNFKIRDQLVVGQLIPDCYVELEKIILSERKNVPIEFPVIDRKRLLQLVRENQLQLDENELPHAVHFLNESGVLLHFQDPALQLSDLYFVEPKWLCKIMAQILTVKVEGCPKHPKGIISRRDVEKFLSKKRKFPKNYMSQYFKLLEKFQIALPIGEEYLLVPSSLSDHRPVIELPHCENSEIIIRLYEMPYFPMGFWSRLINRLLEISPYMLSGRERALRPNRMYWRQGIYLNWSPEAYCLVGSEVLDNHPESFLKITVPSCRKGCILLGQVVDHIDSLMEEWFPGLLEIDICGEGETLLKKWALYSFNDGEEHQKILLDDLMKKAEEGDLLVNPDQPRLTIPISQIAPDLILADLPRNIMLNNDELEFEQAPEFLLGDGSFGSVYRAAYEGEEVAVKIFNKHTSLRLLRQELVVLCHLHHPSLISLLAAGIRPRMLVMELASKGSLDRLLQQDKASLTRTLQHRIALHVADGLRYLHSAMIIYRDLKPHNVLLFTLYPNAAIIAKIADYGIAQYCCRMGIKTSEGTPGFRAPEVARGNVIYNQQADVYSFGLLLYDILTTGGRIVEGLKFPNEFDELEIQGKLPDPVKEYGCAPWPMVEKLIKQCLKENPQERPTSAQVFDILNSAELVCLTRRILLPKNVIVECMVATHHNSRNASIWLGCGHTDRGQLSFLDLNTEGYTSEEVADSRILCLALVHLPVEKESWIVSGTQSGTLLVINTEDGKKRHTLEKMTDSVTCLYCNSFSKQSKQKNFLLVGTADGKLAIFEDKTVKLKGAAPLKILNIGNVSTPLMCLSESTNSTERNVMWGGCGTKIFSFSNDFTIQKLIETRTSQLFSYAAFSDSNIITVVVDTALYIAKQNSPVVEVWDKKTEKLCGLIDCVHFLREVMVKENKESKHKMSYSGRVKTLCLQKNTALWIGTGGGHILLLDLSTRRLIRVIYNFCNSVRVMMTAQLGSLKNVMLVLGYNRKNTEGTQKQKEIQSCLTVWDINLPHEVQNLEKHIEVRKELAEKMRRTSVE
Method: a. Full Length G2019 Human LRRK2 Inhibition Mass Spectrometry Assay
This assay for Leucine Rich Repeat Kinase 2 (LRRK2) inhibition is based on the direct measurement of the peptide ‘LRRKtide’ (LRRKtide: RLGRDKYKT*LRQIRQ and “*” refers to the site of phosphorylation.) and phosphorylated ‘LRRKtide’ using a high throughput RapidFire mass spectrometry assay. Inhibitors are compounds that reduce the conversion of LRRKtide to phospho-LRRKtide.
HEK293 6E cells were incubated in a 37° C. incubator with a humidified atmosphere of 5% CO2 on an orbital shaker rotating at 110 rpm. On the day of transduction, the cell viability was higher than 98% and the cell density was in the range of 1×10^6˜1.5×10^6 cells/ml. HEK293 6E cells were centrifuged at 1,000 rpm for 10 min, and then the cells were resuspended in fresh Freestyle 293 expression medium (Invitrogen:12338) with 0.1% F-68 (Invitrogen:24040-032) but without antibiotics (G418) at density of 1×10^6 cells/ml. BacMam virus with Flag-hu LRRK2 (genotypically normal) gene was centrifuged at 40,000 g for 2 hours, then resuspended in fresh Freestyle 293 expression medium. The resuspended virus was added into the cells in at MOI of 10. The cells were incubated in a 37° C. incubator with a humidified atmosphere of 5% CO2 in air on an orbital shaker rotating at 110 rpm. Cultures were harvested at approximately 48 hours post-transduction by centrifugation at 4,000 rpm for 20 min and pellets were frozen for purification.
The suspended cells were lysed by sonication on ice for 30 min (2 secs on/4 sec off, 20% amplitude), and centrifuged at 10,000 rpm for 30 minutes at 4° C. The supernatant was incubated with 1 mL per litre of cell culture of anti-Flag magnetic beads (Sigma-Aldrich: M8823) at 4° C. for 3 hours, then the beads were washed by 5 mL (5 column volume) binding buffer (50 mM Tris pH7.5@ 4C, 500 mM NaCl, 0.5 mM EDTA, 0.1% TritonX-100, 10% glycerol, freshly add 2 mM DTT) for three times. The Flag tagged LRRK2 proteins were eluted by Elution buffer (50 mM Tris pH7.5@ 4C, 500 mM NaCl, 0.5 mM EDTA, 0.1% TritonX-100, 10% glycerol, freshly add 2 mM DTT, 250 ug/ml Flag peptide (Sigma-Aldrich:F3290)) at 4° C. for 2 hours. Flag peptide was removed by Zeba Spin Desalting Columns, 7K MWCO (Thermo-Fisher: 89893) and the buffer of eluted LRRK2 proteins was exchanged into Storage Buffer (50 mM Tris pH7.5@4C, 150 mM NaCl, 0.5 mM EDTA, 0.02% Triton X-100, 2 mM DTT and 50% Glycerol) using Amicon Ultra Centrifugal Filter Units (100 kD) (Merck: UFC910096). Fractions containing LRRK2 proteins were pooled, aliquoted and stored at −80° C. Protein concentration was determined by Bradford protein assay, and protein purity was analyzed by NuPAG Novex 4-12% Bis-Tris Protein Gels (Invitrogen: NP0322BOX).
• 1) A 10 mM test compound was dissolved in 100% DMSO and serially diluted 1 in 4. 100 nL of this dilution series was then added to a 384 well, v bottom polypropylene plate, excluding columns 6 and 18. 100 nL of DMSO was added to columns 6 and 18 as controls wells. Assay dilution gave a top final assay concentration of test compound of 100 μM • 2) 50 μl of 1% formic acid in laboratory grade water was added to column 18 using a multidrop combi dispenser to act as a pre stopped assay control. • 3) 5 μl of ‘enzyme solution’ containing 50 nM of purified recombinant Full length Flag-LRRK2 in assay buffer (50 mM Hepes (pH 7.2), 10 mM MgCl2, 150 mM NaCl, 5% glycerol, 0.0025% triton X-100 and 1 mM DTT) was added to all wells using a multidrop combi dispenser, giving a final assay concentration of 25 nM LRRK2 enzyme. […] Test plates were then incubated for 30 minutes at room temperature. • 4) 5 μl ‘substrate solution’ containing 50 uM LRRKtide peptide substrate and 4 mM ATP was added to all wells of the plate using a multidrop combi dispenser giving a final assay concentration of 25 uM LRRKtide and 2 mM ATP. Test plates were then incubated for 1 hour at room temperature. […]

[2] = target: T2, recombinant full length LRRK2 (Homo sapiens, UniProt Q5S007); assay: Recombinant cellular LRRK2 AlphaScreen assay; type: cell-based; details: LRRK2 Ser935 phosphorylation, SH-SY5Y cells over-expressing recombinant full length LRRK2; read-out: pIC50 in the recombinant cellular LRRK2 AlphaScreen assay (converted)
T2 construct: A BacMam virus expressing full length recombinant LRRK2 was purchased from Invitrogen; host or cells: SH-SY5Y human neuroblastoma cells transduced with BacMam LRRK2 virus (MOI 50)
T2 sequence (Q5S007 whole entry): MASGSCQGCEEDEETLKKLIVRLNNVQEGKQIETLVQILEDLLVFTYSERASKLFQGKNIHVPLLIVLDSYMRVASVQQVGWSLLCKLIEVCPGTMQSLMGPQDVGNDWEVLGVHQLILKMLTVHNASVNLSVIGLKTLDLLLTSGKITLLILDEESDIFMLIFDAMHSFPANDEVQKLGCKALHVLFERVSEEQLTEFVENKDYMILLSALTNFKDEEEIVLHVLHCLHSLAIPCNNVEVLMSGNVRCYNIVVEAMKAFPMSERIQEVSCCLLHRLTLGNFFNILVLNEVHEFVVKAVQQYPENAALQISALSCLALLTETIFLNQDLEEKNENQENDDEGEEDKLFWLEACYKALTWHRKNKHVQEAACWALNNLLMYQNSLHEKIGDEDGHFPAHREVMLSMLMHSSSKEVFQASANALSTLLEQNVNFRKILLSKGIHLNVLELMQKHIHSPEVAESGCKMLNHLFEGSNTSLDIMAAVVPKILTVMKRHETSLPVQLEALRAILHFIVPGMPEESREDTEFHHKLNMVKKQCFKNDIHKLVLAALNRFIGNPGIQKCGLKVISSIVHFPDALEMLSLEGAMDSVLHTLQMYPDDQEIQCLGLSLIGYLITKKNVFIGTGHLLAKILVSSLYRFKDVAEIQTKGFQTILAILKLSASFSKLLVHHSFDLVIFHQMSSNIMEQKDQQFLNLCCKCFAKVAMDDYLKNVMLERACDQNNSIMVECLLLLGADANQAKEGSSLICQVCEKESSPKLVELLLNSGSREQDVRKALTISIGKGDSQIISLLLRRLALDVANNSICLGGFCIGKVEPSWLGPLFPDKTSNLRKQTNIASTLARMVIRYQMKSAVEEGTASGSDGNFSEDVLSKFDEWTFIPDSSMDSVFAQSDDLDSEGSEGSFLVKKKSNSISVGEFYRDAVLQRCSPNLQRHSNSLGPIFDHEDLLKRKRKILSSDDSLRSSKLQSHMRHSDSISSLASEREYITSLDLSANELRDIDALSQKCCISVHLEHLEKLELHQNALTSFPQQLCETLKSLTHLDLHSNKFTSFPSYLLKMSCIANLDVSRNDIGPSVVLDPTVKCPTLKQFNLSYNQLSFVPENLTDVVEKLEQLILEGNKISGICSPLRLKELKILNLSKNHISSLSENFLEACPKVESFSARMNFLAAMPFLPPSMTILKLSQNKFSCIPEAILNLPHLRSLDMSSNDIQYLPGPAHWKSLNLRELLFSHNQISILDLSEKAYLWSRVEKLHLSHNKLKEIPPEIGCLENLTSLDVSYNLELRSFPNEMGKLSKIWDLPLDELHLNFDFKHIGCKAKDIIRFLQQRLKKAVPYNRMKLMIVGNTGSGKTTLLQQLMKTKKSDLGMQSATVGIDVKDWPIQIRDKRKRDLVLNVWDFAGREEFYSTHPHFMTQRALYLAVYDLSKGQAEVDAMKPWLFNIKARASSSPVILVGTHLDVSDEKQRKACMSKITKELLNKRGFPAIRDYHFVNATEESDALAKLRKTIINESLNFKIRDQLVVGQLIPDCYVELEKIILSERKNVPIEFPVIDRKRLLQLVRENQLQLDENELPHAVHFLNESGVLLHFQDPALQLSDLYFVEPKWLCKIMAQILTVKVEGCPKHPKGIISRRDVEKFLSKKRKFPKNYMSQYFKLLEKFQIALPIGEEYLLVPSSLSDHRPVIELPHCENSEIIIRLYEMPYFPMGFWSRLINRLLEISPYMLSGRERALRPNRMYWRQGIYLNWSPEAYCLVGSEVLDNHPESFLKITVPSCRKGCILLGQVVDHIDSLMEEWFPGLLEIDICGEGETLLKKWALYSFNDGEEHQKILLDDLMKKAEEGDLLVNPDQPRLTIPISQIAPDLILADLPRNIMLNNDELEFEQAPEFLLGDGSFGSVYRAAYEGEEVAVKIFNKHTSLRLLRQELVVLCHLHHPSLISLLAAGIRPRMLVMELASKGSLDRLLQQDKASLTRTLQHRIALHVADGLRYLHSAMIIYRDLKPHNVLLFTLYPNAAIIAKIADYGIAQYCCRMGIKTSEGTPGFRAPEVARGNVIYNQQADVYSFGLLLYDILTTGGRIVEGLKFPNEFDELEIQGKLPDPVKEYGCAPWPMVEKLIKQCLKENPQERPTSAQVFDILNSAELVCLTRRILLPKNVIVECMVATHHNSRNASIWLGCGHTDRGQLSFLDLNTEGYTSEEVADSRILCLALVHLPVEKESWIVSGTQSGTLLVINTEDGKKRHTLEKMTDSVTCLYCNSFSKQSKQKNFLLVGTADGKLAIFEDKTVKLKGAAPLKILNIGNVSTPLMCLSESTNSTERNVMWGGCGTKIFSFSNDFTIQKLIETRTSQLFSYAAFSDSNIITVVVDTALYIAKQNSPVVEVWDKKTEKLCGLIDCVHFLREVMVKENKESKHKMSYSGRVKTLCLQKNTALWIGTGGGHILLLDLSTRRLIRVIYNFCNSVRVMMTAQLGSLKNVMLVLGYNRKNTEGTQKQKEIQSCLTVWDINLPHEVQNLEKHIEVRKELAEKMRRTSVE
Excerpt: b. Recombinant Cellular LRRK2 AlphaScreen Assay
To determine the activity of compounds against LRRK2 kinase activity in cells, the observed LRRK2 kinase-dependent modulation of LRRK2 Ser 935 phosphorylation (Dzamko et al., 2010, Biochem. J. 430: 405-413) was utilized to develop a quantitative 384 well plate-based immunoassay of LRRK2 Ser935 phosphorylation in the human neuroblastoma cell line SH-SY5Y, engineered to over-express recombinant full length LRRK2 protein. A BacMam virus expressing full length recombinant LRRK2 was purchased from Invitrogen and amplified by inoculation of SF-9 cells at MOI 0.3 for 4-5 days in Sf-900 III SFM medium supplemented with 3% fetal bovine serum. Infected cell cultures were then centrifuged at 2000 g for 20 minutes, viral supernatant titer determined by anti-gp64 plaque assay and stored at 4° C. Affinity-purified anti-phospho LRRK2 Ser935 sheep polyclonal antibody (Dzamko et al., 2010, Biochem. J. 430: 405-413) was biotinylated by standard methods (PerkinElmer). Anti-LRRK2 rabbit polyclonal antibody was purchased from Novus Biologicals. AlphaScreen Protein A IgG Kit (including acceptor and donor beads) was purchased from Perkin Elmer. SH-SY5Y cells were grown in DMEM/F12 medium with 10% dialysed fetal bovine serum and harvested by treatment with 0.5% trypsin-EDTA for 5 minutes at 37° C. followed by centrifugation at 1000 rpm for 4 minutes. The cell pellet was resuspended in Opti-MEM reduced serum media (Invitrogen) at 200,000 cells/ml and mixed with the BacMam LRRK2 virus at MOI=50. 50 μl cell solutions were then dispensed to each well of a 384-well plate and incubated at 37° C., 5% CO2 for 24 hours. Serial dilutions of test compounds were prepared in Opti-MEM reduced serum media (Invitrogen) and 5.6 ul transferred from compound plate to cell assay plate to achieve a top final assay concentration of 10 uM. DMSO was used in certain wells as controls. Cells were incubated at 37° C., 5% CO2 for 60 minutes. The medium was then removed and cells lysed by addition of 20 ul cell lysis buffer (Cell Signaling Technology) and incubation at 4° C. for 20 minutes. 10 ul of antibody/acceptor bead mix [(1/1000 biotinylated-pS935 LRRK2 antibody, 1/1000 total-LRRK2 antibody, 1/100 Acceptor beads in AlphaScreen detection buffer (25 mM Hepes (pH 7.4), 0.5% Triton X-100, 1 mg/ml Dextran 500 and 0.1% BSA)] was then added to each well and plates incubated for 2 hours at ambient temperature in the dark. 10 μl of donor beads solution (1/33.3 donor beads in AlphaScreen detection buffer) was then added to each well. Following incubation for a further 2 hours at ambient temperature in the dark, plates were read on an EnVision™ plate reader at emission 520-620 nm with excitation 680 nm. Dose response curve data was based on sigmoidal dose-response model.

IC50 [1] [µM]	IC50 [2]	SMILES
≤ 0.1	≤ 0.1 µM	COc1nc(N2CCO[C@H](CO)C2)cc(-n2ncc3cc(C)c(C4CCN(C5CCOC5)CC4F)cc32)n1 (single isomer, unassigned) [Example E124]
0.0794	≤ 0.1 µM and 0.126 µM	Cc1nc(N2CCO[C@H](CO)C2)cc(-n2ncc3cc(C)c(C4CCN(C5CCOC5)CC4)cc32)n1 (single isomer, unassigned) [Example E1]
≤ 1	≤ 1 µM	Cc1nc(N2CCOC(C(C)O)C2)cc(-n2ncc3cc(C)c(C4CCN(C5CCOC5)CC4)cc32)n1 (single isomer, unassigned) [Example E139, 1-(4-(2-methyl-6-(5-methyl-6-(1-(tetrahydrofuran-3-yl)piperidin-4-yl)-1H-indazol-1-yl)pyrimidin-4-yl)morpholin-2-yl)ethanol]
≤ 0.1	≤ 1 µM	[2H]c1nn(-c2cc(N3CCO[C@@H](CO)C3)nc(C)n2)c2cc(C3CCN([C@@H]4CCOC4)CC3)c(C)cc12 [Example E94, ((R)-4-(6-(3-deuterium-5-methyl-6-(1-((R)-tetrahydrofuran-3-yl)piperidin-4-yl)-1H-indazol-1-yl)-2-methylpyrimidin-4-yl)morpholin-2-yl)methanol]
≤ 0.1	≤ 0.1 µM	COc1nc(N2CCO[C@@H](CO)C2)cc(-n2ncc3cc(C)c(C4CCN(C5CCOC5)CC4F)cc32)n1 (single isomer, unassigned) [Example E119]
≤ 0.1	≤ 1 µM	Cc1nc(N2CCO[C@H](CO)C2)cc(-n2ncc3cc(C)c(C4CCN(C5COCC5C)CC4)cc32)n1 (stereo partly drawn) [Example E155, ((2S)-4-(2-methyl-6-(5-methyl-6-(1-(4-methyltetrahydrofuran-3-yl)piperidin-4-yl)-1H-indazol-1-yl)pyrimidin-4-yl)morpholin-2-yl)methanol]
≤ 0.1	≤ 1 µM	Cc1nc(N2CCOC(C)(CO)C2)cc(-n2ncc3cc(C)c(C4CCN([C@H]5CCOC5)CC4)cc32)n1 (stereo partly drawn) [Example E156, (2-methyl-4-(2-methyl-6-(5-methyl-6-(1-((S)-tetrahydrofuran-3-yl)piperidin-4-yl)-1H-indazol-1-yl)pyrimidin-4-yl)morpholin-2-yl)methanol]
≤ 1	–	Cc1nc(N2CCOC[C@H]2CO)cc(-n2ncc3cc(C)c(C4CCN(C5CCOC5)CC4)cc32)n1 (single isomer, unassigned) [Example E111]
≤ 1	–	Cc1nc(OC2CC(O)C2)cc(-n2ncc3cc(C)c(C4CCN(C5CCOC5)CC4)cc32)n1 (single isomer, unassigned) [Example E146, 3-((2-methyl-6-(5-methyl-6-(1-(tetrahydrofuran-3-yl)piperidin-4-yl)-1H-indazol-1-yl)pyrimidin-4-yl)oxy)cyclobutanol]
≤ 1	–	[2H]C1(N2CCC(c3cc4c(cnn4-c4cc(N5CCO[C@H](CO)C5)nc(C)n4)cc3C)CC2)CCOC1 (single isomer, unassigned) [Example E33]
–	≤ 0.01 µM	COc1nc(N2CC(O)C2)cc(-n2ncc3cc(Cl)c(C4CCN(C5CCOC5)CC4)cc32)n1 (single isomer, unassigned) [Example E29, 1-(6-(5-Chloro-6-(1-(tetrahydrofuran-3-yl)piperidin-4-yl)-1H-indazol-1-yl)-2-methoxy-pyrimidin-4-yl)azetidin-3-ol]
–	≤ 1 µM	COc1nc(N2CC(C(C)O)C2)cc(-n2ncc3cc(C)c(C4CCN(C5CCOC5)CC4)cc32)n1 (single isomer, unassigned) [Example E99, 1-(1-(2-methoxy-6-(5-methyl-6-(1-(tetrahydrofuran-3-yl)piperidin-4-yl)-1H-indazol-1-yl)pyrimidin-4-yl)azetidin-3-yl)ethanol]
–	0.2 µM	[2H]C1(N2CCC(c3cc4c(cnn4-c4cc(N5CCO[C@@H](CO)C5)nc(C)n4)cc3C)CC2)CCOC1 (single isomer, unassigned) [Example E35]
≤ 0.1	–	Cc1nc(N2CC(C)(O)C2)cc(-n2ncc3cc(Cl)c(C4CCN(C5CCOC5)CC4)cc32)n1 (single isomer, unassigned) [Example E127, 1-(6-(5-chloro-6-(1-(tetrahydrofuran-3-yl)piperidin-4-yl)-1H-indazol-1-yl)-2-methyl-pyrimidin-4-yl)-3-methylazetidin-3-ol]
–	≤ 0.1 µM	Cc1nc(N2CCO[C@H](CO)C2)cc(-n2ncc3cc(Cl)c(C4CCN(C5CCOC5)CC4)cc32)n1 (single isomer, unassigned) [Example E25]

SMILES	IC50 [1] [µM]	IC50 [2]
Cc1nc(N2CCO[C@H](CO)C2)cc(-n2ncc3cc(C)c(C4CCN(C5CCOC5)CC4F)cc32)n1 (single isomer, unassigned) [Example E106]	≤ 0.1	≤ 1 µM
